Type in all cases: biochemical
One test deals with PI3K-alpha (Homo sapiens, UniProt P42336). Description: PI3K-alpha fluorescence polarization assay. The conditions noted are these: read-out: PI3Kα Avg. IC50. Background: Fluorescence polarisation rises when a labelled molecule tumbles more slowly, as on binding a larger partner.
In the next test the target is PI3K-beta (Homo sapiens, UniProt P42338). Description: PI3K-beta fluorescence polarization assay. The conditions noted are these: read-out: PI3Kβ Avg. IC50. In short, it runs like this: (§1)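 Enzyme 5 ng; substrate diC8-PI(4,5)P2 2.5 μM; ATP 25 μM; 5 mM HEPES pH 7, 2.5 mM MgCl2; DMSO ≤2%; 1 h, 25° C. Quench 10 mM EDTA. Detect with GRP1 PH domain 100 nM + TMR-IP4 probe 5 nM by polarization.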
Sequence of PI3K-beta (P42338 whole entry, species assumed, the tested form may be a part): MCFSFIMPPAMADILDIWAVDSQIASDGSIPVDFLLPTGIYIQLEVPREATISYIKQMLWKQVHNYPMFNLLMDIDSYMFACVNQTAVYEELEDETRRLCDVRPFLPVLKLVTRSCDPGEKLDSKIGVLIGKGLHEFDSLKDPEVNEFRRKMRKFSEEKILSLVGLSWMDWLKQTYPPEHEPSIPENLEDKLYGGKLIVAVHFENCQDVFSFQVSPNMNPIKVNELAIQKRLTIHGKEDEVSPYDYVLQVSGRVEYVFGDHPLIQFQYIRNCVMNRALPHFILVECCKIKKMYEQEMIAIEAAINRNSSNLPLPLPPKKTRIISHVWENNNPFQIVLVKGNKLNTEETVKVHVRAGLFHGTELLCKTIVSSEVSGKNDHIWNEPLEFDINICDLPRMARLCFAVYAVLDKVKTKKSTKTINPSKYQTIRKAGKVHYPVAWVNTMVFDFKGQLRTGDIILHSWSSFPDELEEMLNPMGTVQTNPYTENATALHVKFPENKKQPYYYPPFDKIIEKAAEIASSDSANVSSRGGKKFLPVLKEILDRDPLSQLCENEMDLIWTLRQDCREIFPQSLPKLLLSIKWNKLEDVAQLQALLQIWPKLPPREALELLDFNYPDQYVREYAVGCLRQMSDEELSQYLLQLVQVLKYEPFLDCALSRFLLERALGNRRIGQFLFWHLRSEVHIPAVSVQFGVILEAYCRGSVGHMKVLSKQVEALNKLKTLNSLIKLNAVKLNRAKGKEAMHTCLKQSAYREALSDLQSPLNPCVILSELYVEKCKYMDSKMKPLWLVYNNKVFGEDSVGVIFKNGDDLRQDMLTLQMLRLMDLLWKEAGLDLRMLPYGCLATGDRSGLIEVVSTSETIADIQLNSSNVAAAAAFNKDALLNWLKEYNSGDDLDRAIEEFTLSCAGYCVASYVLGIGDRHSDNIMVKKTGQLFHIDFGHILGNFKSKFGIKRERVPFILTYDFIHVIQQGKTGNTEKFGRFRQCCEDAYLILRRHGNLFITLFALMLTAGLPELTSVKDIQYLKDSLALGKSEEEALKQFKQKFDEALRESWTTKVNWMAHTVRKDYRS
Sequence of PI3K-beta (P27986 whole entry partner, species assumed, the tested form may be a part): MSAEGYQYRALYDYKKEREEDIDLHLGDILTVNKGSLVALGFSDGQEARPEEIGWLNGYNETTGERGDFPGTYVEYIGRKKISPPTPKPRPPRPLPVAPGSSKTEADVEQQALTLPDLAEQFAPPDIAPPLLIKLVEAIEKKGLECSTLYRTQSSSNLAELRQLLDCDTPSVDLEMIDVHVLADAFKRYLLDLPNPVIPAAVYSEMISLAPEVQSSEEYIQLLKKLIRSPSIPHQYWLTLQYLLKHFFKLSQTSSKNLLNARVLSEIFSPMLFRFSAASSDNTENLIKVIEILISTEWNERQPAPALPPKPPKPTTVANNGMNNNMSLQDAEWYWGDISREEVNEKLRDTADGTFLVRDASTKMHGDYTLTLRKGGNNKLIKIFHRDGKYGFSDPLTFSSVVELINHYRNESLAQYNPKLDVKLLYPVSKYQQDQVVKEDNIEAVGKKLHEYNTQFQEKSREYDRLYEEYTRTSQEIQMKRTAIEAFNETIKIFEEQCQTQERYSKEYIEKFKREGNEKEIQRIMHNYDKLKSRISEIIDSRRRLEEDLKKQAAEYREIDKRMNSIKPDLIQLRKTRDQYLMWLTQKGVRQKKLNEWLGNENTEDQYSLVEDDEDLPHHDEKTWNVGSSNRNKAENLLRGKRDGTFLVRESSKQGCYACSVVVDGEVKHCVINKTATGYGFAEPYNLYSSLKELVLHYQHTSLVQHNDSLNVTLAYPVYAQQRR

A further test has as its target PI3K-gamma (Homo sapiens, UniProt P48736). Description: PI3K-gamma fluorescence polarization assay. The conditions noted are these: PI3Kγ Avg. IC50. The procedure, abridged:
as §1

A further test has as its target PI3K-delta (Homo sapiens, UniProt O00329). Description: PI3K-delta fluorescence polarization assay. The conditions noted are these: read-out: PI3Kδ Avg. IC50.
Another test deals with T1, human TOR (Homo sapiens, UniProt P42345).
T1 construct: FLAG
Description: mTOR enzyme assay (DELFIA, His6-S6K substrate). The conditions noted are these: read-out: mTOR Kinase Avg. IC50.

A value given as a limit tells only on which side of the number the result lay.

Sequence of PI3K-delta (O00329 whole entry, species assumed): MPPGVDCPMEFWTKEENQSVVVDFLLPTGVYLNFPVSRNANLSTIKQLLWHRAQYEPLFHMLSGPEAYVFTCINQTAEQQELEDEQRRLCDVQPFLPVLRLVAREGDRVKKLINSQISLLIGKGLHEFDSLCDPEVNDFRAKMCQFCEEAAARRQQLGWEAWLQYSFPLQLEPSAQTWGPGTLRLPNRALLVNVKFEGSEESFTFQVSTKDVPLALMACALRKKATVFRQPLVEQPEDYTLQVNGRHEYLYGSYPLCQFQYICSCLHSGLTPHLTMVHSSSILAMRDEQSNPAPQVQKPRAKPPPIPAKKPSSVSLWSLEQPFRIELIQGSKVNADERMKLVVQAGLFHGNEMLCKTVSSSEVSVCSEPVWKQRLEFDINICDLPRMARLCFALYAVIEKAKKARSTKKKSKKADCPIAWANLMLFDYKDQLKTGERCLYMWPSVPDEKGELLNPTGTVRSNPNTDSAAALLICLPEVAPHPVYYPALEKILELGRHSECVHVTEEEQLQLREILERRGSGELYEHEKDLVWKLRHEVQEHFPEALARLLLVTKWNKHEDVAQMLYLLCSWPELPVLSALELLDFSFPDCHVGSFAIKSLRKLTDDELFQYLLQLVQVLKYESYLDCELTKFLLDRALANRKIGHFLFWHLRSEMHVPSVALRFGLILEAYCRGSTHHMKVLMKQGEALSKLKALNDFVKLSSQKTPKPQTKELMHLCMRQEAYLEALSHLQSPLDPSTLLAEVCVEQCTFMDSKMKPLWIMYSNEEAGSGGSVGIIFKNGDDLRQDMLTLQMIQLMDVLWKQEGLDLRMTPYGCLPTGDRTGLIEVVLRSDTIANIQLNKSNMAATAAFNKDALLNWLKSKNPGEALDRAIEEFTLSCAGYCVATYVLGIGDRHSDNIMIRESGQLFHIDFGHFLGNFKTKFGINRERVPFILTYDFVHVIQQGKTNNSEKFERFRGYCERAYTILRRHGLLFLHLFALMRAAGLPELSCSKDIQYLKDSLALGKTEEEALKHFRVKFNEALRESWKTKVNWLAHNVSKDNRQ
Sequence of PI3K-delta (P27986 whole entry partner, species assumed): as the sequence (P27986 whole entry partner, species assumed, the tested form may be a part) above
Sequence of PI3K-alpha (P42336 whole entry, species assumed, the tested form may be a part): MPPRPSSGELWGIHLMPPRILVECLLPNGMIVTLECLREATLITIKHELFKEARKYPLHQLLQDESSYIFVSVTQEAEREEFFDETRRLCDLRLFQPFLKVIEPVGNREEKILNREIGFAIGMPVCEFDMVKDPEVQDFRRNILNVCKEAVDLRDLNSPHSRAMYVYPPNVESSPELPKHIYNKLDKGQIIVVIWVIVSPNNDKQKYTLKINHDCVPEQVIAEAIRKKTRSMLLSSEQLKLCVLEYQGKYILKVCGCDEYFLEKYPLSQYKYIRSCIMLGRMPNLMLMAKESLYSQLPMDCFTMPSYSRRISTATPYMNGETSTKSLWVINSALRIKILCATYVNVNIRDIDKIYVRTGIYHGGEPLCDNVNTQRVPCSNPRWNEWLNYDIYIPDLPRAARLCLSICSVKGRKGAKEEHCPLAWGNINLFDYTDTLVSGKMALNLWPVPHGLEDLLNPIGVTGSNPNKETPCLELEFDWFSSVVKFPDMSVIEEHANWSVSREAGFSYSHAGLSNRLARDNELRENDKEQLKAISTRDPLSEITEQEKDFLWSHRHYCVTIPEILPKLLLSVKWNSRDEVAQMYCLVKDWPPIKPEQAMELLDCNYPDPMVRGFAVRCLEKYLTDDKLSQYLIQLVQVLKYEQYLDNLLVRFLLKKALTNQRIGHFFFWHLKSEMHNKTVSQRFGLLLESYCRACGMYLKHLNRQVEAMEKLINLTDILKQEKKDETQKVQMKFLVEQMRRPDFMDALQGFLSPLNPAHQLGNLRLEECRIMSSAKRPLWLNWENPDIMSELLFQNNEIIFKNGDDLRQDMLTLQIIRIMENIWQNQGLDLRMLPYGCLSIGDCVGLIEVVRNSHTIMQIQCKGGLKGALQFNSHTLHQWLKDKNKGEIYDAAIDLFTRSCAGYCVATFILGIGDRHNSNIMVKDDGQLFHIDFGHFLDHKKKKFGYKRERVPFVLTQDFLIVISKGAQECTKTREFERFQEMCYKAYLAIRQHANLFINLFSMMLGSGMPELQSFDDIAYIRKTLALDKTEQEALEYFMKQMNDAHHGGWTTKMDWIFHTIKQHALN
Sequence of PI3K-alpha (P27986 whole entry partner, species assumed, the tested form may be a part): as the sequence (P27986 whole entry partner, species assumed, the tested form may be a part) above
Sequence of PI3K-gamma (P48736 whole entry, species assumed): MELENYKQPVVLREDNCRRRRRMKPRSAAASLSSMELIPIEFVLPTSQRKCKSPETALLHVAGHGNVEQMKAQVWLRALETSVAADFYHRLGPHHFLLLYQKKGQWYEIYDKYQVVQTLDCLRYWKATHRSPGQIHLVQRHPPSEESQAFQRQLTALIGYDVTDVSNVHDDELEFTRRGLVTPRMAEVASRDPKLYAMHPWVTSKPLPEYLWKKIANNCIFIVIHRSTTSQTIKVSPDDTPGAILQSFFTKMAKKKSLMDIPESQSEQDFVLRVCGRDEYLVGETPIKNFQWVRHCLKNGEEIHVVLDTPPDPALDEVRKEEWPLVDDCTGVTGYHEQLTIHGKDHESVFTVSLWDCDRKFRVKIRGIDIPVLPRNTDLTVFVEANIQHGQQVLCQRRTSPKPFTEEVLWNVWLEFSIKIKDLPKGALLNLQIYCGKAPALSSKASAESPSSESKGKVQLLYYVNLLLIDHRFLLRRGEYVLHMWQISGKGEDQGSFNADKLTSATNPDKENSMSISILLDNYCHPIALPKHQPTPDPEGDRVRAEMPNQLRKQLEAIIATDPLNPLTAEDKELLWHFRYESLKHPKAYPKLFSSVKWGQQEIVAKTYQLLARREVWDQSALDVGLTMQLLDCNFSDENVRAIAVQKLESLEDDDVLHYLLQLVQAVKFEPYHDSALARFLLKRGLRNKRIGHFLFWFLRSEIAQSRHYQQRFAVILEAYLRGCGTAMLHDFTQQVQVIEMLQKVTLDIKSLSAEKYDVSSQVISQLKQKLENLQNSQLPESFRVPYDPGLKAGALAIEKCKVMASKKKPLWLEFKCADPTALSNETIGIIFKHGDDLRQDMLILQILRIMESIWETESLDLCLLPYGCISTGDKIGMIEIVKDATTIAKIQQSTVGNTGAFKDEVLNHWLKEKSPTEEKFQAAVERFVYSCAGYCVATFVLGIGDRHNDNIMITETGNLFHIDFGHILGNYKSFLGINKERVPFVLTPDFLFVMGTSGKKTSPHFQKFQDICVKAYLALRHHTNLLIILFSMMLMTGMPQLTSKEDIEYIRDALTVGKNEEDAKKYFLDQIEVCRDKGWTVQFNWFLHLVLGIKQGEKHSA

As to `COc1ccc2c(c1)c(/C=C1\Oc3cc(O)cc(O)c3C1=O)cn2CCN1CCC(O)CC1` [Example 319, (2Z)-4,6-Dihydroxy-2-({1-[2-(4-hydroxypiperidin-1-yl)ethyl]-5-methoxy-1H-indol-3-yl}methylene)-1-benzofuran-3(2H)-one], the 50% inhibitory concentration (IC50) on PI3K-alpha was determined as 38.3 nM; on PI3K-beta, 108 nM; on PI3K-gamma, 117 nM; at PI3K-delta, 3.5 nM; on human TOR it was 265 nM.
On the same counts, the results for `COc1ccc2c(c1)c(/C=C1\Oc3cc(O)cc(O)c3C1=O)c(C)n2CCN1CCC(O)CC1` [Example 320, (2Z)-4,6-Dihydroxy-2-({1-[2-(4-hydroxypiperidin-1-yl)ethyl]-5-methoxy-2-methyl-1H-indol-3-yl}methylene)-1-benzofuran-3(2H)-one] are 3 nM, 22 nM, 36.5 nM, 0.8 nM and 12.8 nM.
`COc1ccc2c(c1)c(/C=C1\Oc3cc(O)cc(O)c3C1=O)c(C)n2CCO` [Example 321, (2Z)-4,6-Dihydroxy-2-{[1-(2-hydroxyethyl)-5-methoxy-2-methyl-1H-indol-3-yl]methylene}-1-benzofuran-3(2H)-one]: the IC50 amounted to 2 nM on PI3K-alpha; 10 nM at PI3K-beta; 15.5 nM at PI3K-gamma; 1.8 nM on PI3K-delta; 6.85 nM on human TOR.
Regarding `COc1ccc2c(c1)c(/C=C1\Oc3cc(O)cc(O)c3C1=O)cn2CCCN(C)C` [Example 323, (2Z)-2-({1-[3-(Dimethylamino)propyl]-5-methoxy-1H-indol-3-yl}methylene)-4,6-dihydroxy-1-benzofuran-3(2H)-one], the IC50 worked out at 20.5 nM on PI3K-alpha; 120 nM at PI3K-beta; 605 nM on PI3K-gamma; 4 nM on PI3K-delta; 930 nM at human TOR.
On the same counts, the results for `COc1ccc2c(c1)c(/C=C1\Oc3cc(O)cc(O)c3C1=O)cn2CCN1CCC(O)C1` (centres unmarked) [Example 326, (2Z)-4,6-Dihydroxy-2-({1-[2-(3-hydroxypyrrolidin-1-yl)ethyl]-5-methoxy-1H-indol-3-yl}methylene)-1-benzofuran-3(2H)-one] are 58 nM, 88 nM, 150 nM, 9.5 nM and 540 nM.
The corresponding values for `COc1ccc2c(c1)c(/C=C1\Oc3cc(O)cc(O)c3C1=O)c(C)n2CCN1CCC(O)C1` (centres unmarked) [Example 327, (2Z)-4,6-Dihydroxy-2-({1-[2-(3-hydroxypyrrolidin-1-yl)ethyl]-5-methoxy-2-methyl-1H-indol-3-yl}methylene)-1-benzofuran-3(2H)-one] are 11 nM, 9.5 nM, 39 nM, 2.5 nM and under 30 nM.
The corresponding values for `COc1ccc2c(c1)c(/C=C1\Oc3cc(O)cc(O)c3C1=O)c(C)n2CCn1ccnc1` [Example 328, (2Z)-4,6-Dihydroxy-2-({1-[2-(1H-imidazol-1-yl)ethyl]-5-methoxy-2-methyl-1H-indol-3-yl}methylene)-1-benzofuran-3(2H)-one] are 6 nM, 2.5 nM, 15.5 nM, 2 nM and under 24 nM.
As to `COc1ccc2c(c1)c(/C=C1\Oc3cc(O)cc(O)c3C1=O)c(-c1cnn(C)c1)n2CC(=O)N(C)C` [Example 329, 2-{3-[(Z)-(4,6-Dihydroxy-3-oxo-1-benzofuran-2(3H)-ylidene)methyl]-5-methoxy-2-(1-methyl-1H-pyrazol-4-yl)-1H-indol-1-yl}-N,N-dimethylacetamide], the IC50 at PI3K-alpha came out at 12.5 nM; on PI3K-beta it was 51.6 nM; on PI3K-gamma, 130 nM; on PI3K-delta it was 18.5 nM; on human TOR it was 39 nM.
Take `COc1ccc2[nH]c(-c3cnn(C)c3)c(/C=C3\Oc4cc(O)cc(O)c4C3=O)c2c1` [Example 330, (2Z)-4,6-Dihydroxy-2-{[5-methoxy-2-(1-methyl-1H-pyrazol-4-yl)-1H-indol-3-yl]methylene}-1-benzofuran-3(2H)-one]: the IC50 at PI3K-alpha was under 1.8 nM; on PI3K-beta it was 1 nM; at PI3K-gamma, 3 nM; at PI3K-delta it was 1.5 nM; on human TOR it was under 17 nM.
Take `COc1ccc2[nH]c(C(=O)N3CCN(C)CC3)c(/C=C3\Oc4cc(O)cc(O)c4C3=O)c2c1` [Example 331, (2Z)-4,6-Dihydroxy-2-({5-methoxy-2-[(4-methylpiperazin-1-yl)carbonyl]-1H-indol-3-yl}methylene)-1-benzofuran-3(2H)-one]: the IC50 at PI3K-alpha worked out at 4 nM; on PI3K-beta, 5.5 nM; against PI3K-gamma, 39.5 nM; on PI3K-delta it was 6.5 nM; on human TOR it was 49.5 nM.
Regarding `COc1ccc2c(c1)c(/C=C1\Oc3cc(O)cc(O)c3C1=O)c(C(F)(F)F)n2CCO` [Example 332, (2Z)-4,6-Dihydroxy-2-{[1-(2-hydroxyethyl)-5-methoxy-2-(trifluoromethyl)-1H-indol-3-yl]methylene}-1-benzofuran-3(2H)-one], the IC50 was 5 nM at PI3K-alpha; 13.3 nM on PI3K-beta; 22 nM against PI3K-gamma; 7.8 nM on PI3K-delta; under 21 nM at human TOR.
The corresponding values for `COc1ccc2c(c1)c(/C=C1\Oc3cc(O)cc(O)c3C1=O)c(C(F)(F)F)n2CC(=O)N(C)C` [Example 333, 2-{3-[(Z)-(4,6-Dihydroxy-3-oxo-1-benzofuran-2(3H)-ylidene)methyl]-5-methoxy-2-(trifluoromethyl)-1H-indol-1-yl}-N,N-dimethylacetamide] are 66 nM, 203 nM, 159 nM, 51 nM and 53 nM.
The corresponding values for `COc1ccc2c(c1)c(/C=C1\Oc3cc(O)cc(O)c3C1=O)c(C1CC1)n2CCn1ccnc1` [Example 334, (2Z)-2-({2-Cyclopropyl-1-[2-(1H-imidazol-1-yl)ethyl]-5-methoxy-1H-indol-3-yl}methylene)-4,6-dihydroxy-1-benzofuran-3(2H)-one] are 1.3 nM, 1.2 nM, 2.2 nM, 1.5 nM and under 17 nM.
The corresponding values for `COc1ccc2c(c1)c(/C=C1\Oc3cc(O)ccc3C1=O)c(C(=O)N(C)C)n2CCN1CCN(C)CC1` [Example 335, 3-[(Z)-(6-Hydroxy-3-oxo-1-benzofuran-2(3H)-ylidene)methyl]-5-methoxy-N,N-dimethyl-1-[2-(4-methylpiperazin-1-yl)ethyl]-1H-indole-2-carboxamide] are 9 nM, 22 nM, 588 nM, 2 nM and 1650 nM.
For `COc1ccc2c(c1)c(/C=C1\Oc3cc(O)cc(O)c3C1=O)c(C(F)(F)F)n2CCN1CCN(C)CC1` [Example 336, (2Z)-4,6-Dihydroxy-2-({5-methoxy-1-[2-(4-methylpiperazin-1-yl)ethyl]-2-(trifluoromethyl)-1H-indol-3-yl}methylene)-1-benzofuran-3(2H)-one], the 50% inhibitory concentration (IC50) at PI3K-alpha is 4 nM; on PI3K-beta, 4.1 nM; against PI3K-gamma it was 61.7 nM; on PI3K-delta, 1 nM; on human TOR it was under 22 nM.
For the compound `COc1ccc2c(c1)c(/C=C1\Oc3cc(O)cc(O)c3C1=O)c(C(F)(F)F)n2CCn1cccn1` [Example 337, (2Z)-4,6-Dihydroxy-2-({5-methoxy-1-[2-(1H-pyrazol-1-yl)ethyl]-2-(trifluoromethyl)-1H-indol-3-yl}methylene)-1-benzofuran-3(2H)-one], the IC50 on PI3K-alpha was 13 nM; at PI3K-beta it was 75.3 nM; against PI3K-gamma, 7 nM; at PI3K-delta, 9.7 nM; at human TOR, 20.5 nM.
The corresponding values for `COc1ccc2c(c1)c(/C=C1\Oc3cc(O)cc(C)c3C1=O)c(C)n2CCN1CCN(C)CC1` [Example 338, (2Z)-6-Hydroxy-2-({5-methoxy-2-methyl-1-[2-(4-methylpiperazin-1-yl)ethyl]-1H-indol-3-yl}methylene)-4-methyl-1-benzofuran-3(2H)-one] are 22 nM, 57.7 nM, 666 nM, 3 nM and over 160 nM.
As for `COc1ccc2[nH]c(C(=O)O)c(/C=C3\Oc4cc(O)cc(O)c4C3=O)c2c1` [Example 339, 3-[(Z)-(4,6-Dihydroxy-3-oxo-1-benzofuran-2(3H)-ylidene)methyl]-5-methoxy-1H-indole-2-carboxylic acid], the IC50 turned out to be 5.5 nM on PI3K-alpha; 93.7 nM on PI3K-beta; 8.5 nM at PI3K-gamma; 20.3 nM on PI3K-delta; 39.5 nM at human TOR.
As for `COc1ccc2c(c1)c(/C=C1\Oc3cc(O)cc(O)c3C1=O)c(C1CC1)n2CCn1cccn1` [Example 340, (2Z)-2-({2-Cyclopropyl-5-methoxy-1-[2-(1H-pyrazol-1-yl)ethyl]-1H-indol-3-yl}methylene)-4,6-dihydroxy-1-benzofuran-3(2H)-one], the IC50 at PI3K-alpha was 2 nM; at PI3K-beta, 7.5 nM; at PI3K-gamma, 3 nM; on PI3K-delta it was 1.6 nM; on human TOR, under 0.82 nM.

The term IC50 denotes the midpoint of a concentration-inhibition curve.

These data come from patent US20090311217A1, “3-SUBSTITUTED-1H-INDOLE COMPOUNDS, THEIR USE AS MTOR KINASE AND PI3 KINASE INHIBITORS, AND THEIR SYNTHESES” (priority 2008, published 2009).
